From paper PMC11727410, “Identification of Chemical Constituents from Leaves and Stems of Alpinia oxyphylla: Potential Antioxidant and Tyrosinase Inhibitory Properties” (Antioxidants, 2024)

Legend:
[1] = test system: B16 cells; assay: Measurement of melanin produced by B16 cells; assay type: cell-based; settings: 150 μM, compared with positive control kojic acid; concentration dependent
Method: (§1) B16 melanoma cells (PNS-MC-36) were purchased from Procell Life Science & Technology Co., Ltd. (Wuhan, China).
B16 cells were seeded into 96-well plates with […], and incubated at 37 °C, 5% CO2, and 90% humidity for 24 h. Having removed the supernatant, 100 μL samples with different concentrations were added. Medium without the sample was added as the blank. After incubation for another 72 h, the cells were dissolved in 100 μL of 2 N NaOH, and then incubated at 80 °C. The absorbance (OD) was measured at 450 nm.

[2] = test system: B16 cells; assay: MTT assay for cell viability; assay type: cell-based; settings: under the selected concentrations
Method: as §1
A modified MTT method was applied to screen cell viability. B16 cells were cultured in 96-well plates and mixed with different concentrations of the sample after 24 h. After having been incubated for another 72 h, MTT solution was added to form formazan, which was followed by dissolved in 100 μL DMSO, and then the absorbance (OD) was measured at 490 nm. Cell viability was calculated as percent changes relative to control.

[3] = ABTS radical scavenging activity assay; settings: for Inhibitory rate (%), ABTS (Table S4): Table S4, concentration not given; for ABTS Inhibitory Rate (%): concentration 200 μM, "-" not active
Method: The ABTS radical scavenging activity was examined as previously reported at room temperature (25 °C). Briefly, 160 μL sample in DMSO with different concentrations (800, 400, 200, 100, 50, 25 μM) was reacted with 480 μL ABTS reagent in a 1.5 mL centrifuge tube away from light for 6 min. Next, 200 μL of the mixture was taken out and transferred into a 96-well plate, which was used for measuring the absorbance by a microplate reader at 734 nm (ODsample). The control (ODcontrol) and blank (ODblank) were, respectively, established from the mixture solutions of the sample in DMSO and water and the mixture solution of DMSO and ABTS reagent. Trolox was the positive control, with the same concentration with compounds. The ABTS radical scavenging capacity was calculated as following:ABTS radical scavenging capacity (%) = [1 − (ODsample − ODcontrol)/ODblank] × 100%

[4] = DPPH radical scavenging activity assay; settings: for Inhibitory rate (%), DPPH (Table S4): Table S4, concentration not given; for DPPH Inhibitory Rate (%): concentration 200 μM
Method: The DPPH radical scavenging capacity was measured according to the following reference at room temperature (25 °C). Briefly, 320 μL sample in DMSO with different concentrations (400, 200, 100, 50, 25, 12.5 μM) was reacted with 320 μL DPPH reagent (0.1 mM) in 1.5 mL centrifuge tube away from light for 30 min. Next, 200 μL of the mixture was transferred into a 96-well plate, which was used for measuring the absorbance at 517 nm (ODsample). A control (ODcontrol) and blank (ODblank) were, respectively, established from the mixture solutions of the sample in DMSO and ethanol and the mixture solution of DMSO and DPPH reagent. Vitamin C was the positive control, with the same concentration as the compounds. The DPPH radical scavenging capacity was calculated according to the following:DPPH radical scavenging capacity (%) = [1 − (ODsample − ODcontrol)/ODblank] × 100%

[5] = DPPH radical scavenging activity assay; settings: concentration 100 μg/mL
[6] = ABTS radical scavenging activity assay; settings: concentration 100 μg/mL

SMILES	Melanin production inhibition activity in B16 cells [1]	Toxicity to B16 cells [2]	ABTS IC50 ± SD [3]	Inhibitory rate (%), ABTS (Table S4) [3]	ABTS Inhibitory Rate (%) [3]	Inhibitory rate (%), DPPH (Table S4) [4]	DPPH Inhibitory Rate (%) [4]	DPPH free radical scavenging rate [5]	DPPH IC50 ± SD [4]	ABTS free radical scavenging rate [6]
COC(=O)C1OC(Oc2c(-c3ccc(O)cc3)oc3cc(O)cc(O)c3c2=O)C(OC2OC(C)C(O)C(O)C2O)C(OC(C)=O)C1OC(C)=O [Compound 2, Kaempferol 3-O-α-L-rhamnosyl-(1 → 2)-(3″,4″-diacetyl-β-D-glucuronatemethyl ester)]	stronger inhibitory effects than positive control (kojic acid)	no toxicity	6.42 ± 0.12 µg/mL	93.04 ± 0.10%	93.04 ± 0.10%	22.77 ± 1.85%	22.77 ± 1.85 %	–	–	–
O=C1O[C@H]([C@@H](O)CO)C(O)=C1O [Vitamin C, reference compound]	–	–	–	–	–	85.44 ± 0.34%	85.44 ± 0.34%	72.7%	6.20 ± 0.41 µg/mL	–
COc1cc(CCC(=O)CC(O)CCc2ccc(O)c(OC)c2)ccc1O (centres unmarked) [Compound 7, hexahydrocurcumin]	stronger inhibitory effects than positive control (kojic acid)	no toxicity	13.17 ± 0.18 µg/mL	91.09 ± 0.41%	91.09 ± 0.41 %	35.80 ± 0.77%	35.80 ± 0.77 %	–	–	–
COc1cc(CC(O)C(O)CC2OC(CC(O)C(O)Cc3ccc(O)c(OC)c3)C3C(c4cc(OC)c(O)c(OC)c4)OC(c4cc(OC)c(O)c(OC)c4)C23)ccc1O (centres unmarked) [Compound 1, Aloxy A]	stronger inhibitory effects than positive control (kojic acid)	no toxicity	39.59 ± 0.53 µg/mL	91.09 ± 0.55%	91.09 ± 0.55 %	50.74 ± 2.31%	50.74 ± 2.31 %	–	–	–
Cc1c(C)c2c(c(C)c1O)CCC(C)(C(=O)O)O2 (centres unmarked) [trolox, Trolox, reference compound]	–	–	31.61 ± 0.60 µg/mL	92.69 ± 0.03%	92.69 ± 0.03%	–	–	–	–	91.6%
